# “And” between values parts separate entries of the source, which are not always exact repeats. Equal entries are not always repeated. Where two headings read alike, the source gives them in different places.
# Assays:
# [1] = tested on: GM3 expression in C32 human melanoma cells; test: GM3 fluorescent-linked immunosorbent assay (FLISA), C32 cells; format: cell-based; details: 48 hours
# Description: Inhibition of glucosylceramide synthase activity can be measured with one or more assays. A first assay is a microsomal assay that directly measures the conversion of ceramide to glucosylceramide by HPLC. Microsomes are a source of glucosylceramide synthase activity in the microsomal assay. A second assay is a cell based, phenotypic assay that monitors cell surface expression of the downstream lipid GM3 by antibody mediated immunofluorescence. Specific protocols are provided below.
# This is a phenotypic assay that measures GM3 expression in B16 mouse melanoma or C32 human melanoma cells following treatment with test compounds. Cell surface GM3 expression is determined by antibody mediated fluorescence.
# Compounds are diluted in media and plated in 384 well plates in DMSO. B16 and C32 cells are assayed at densities of 20,000 cells/ml and 62,500 cells/ml, respectively, per well. Each titration curve contains 10 points that are assayed in duplicate on each test run. The plates are incubated for 48 hours at 37° C., 5% CO2, and are then washed once with TBS. Anti-GM3 antibody is added to each well and the plates are then incubated for an additional one hour at room temperature. Plates are subsequently washed twice and incubated for an additional hour with the labeled secondary antibody. Following the final incubation, the plates are washed twice and the fluorescence at λex=D640/20 nm and λem=657 nm is detected on a fluorescent reader.
# The results of the microsomal assays are expressed as “GCS IC50”, which represents the concentration of the compound causing 50% inhibition of glucosylceramide synthase activity. The results of the cell-based assays are expressed as “GM3 B16 IC50” or “GM3 C32 IC50” for the B16 assay and the C32 assay, respectively. These values represent the concentration of the compound causing 50% inhibition of GM3 expression on the cell surface.
# [2] = Study 2: ascending repeated-dose pharmacokinetics in healthy volunteers; format: in vivo, human; details: for AUC(0-t) / Cmax / Tmax / CL renal: both sexes, human, oral; for AUC(0-t) / Cmax / Tmax: plasma; for Tmax: read-out: tmax, median (range); for CL renal: urine and plasma
# [3] = Clinical study in GD-3 patients: Compound 2 concentrations in plasma and CSF; format: in vivo, human; details: 15 mg/day + imiglucerase; for AUC(0-t): read-out: AUC0-24 (mean ± SD); for Cmax: read-out: Cmax (mean ± SD)
# Description: Patients 18 years of age or older with a clinical diagnosis of GD3 and documented deficiency of acid beta-glucosidase activity having received treatment with ERT for at least 3 years and with imiglucerase (Cerezyme) at a stable monthly dose for at least 6 months prior to enrollment were included in the study. Patients must have reached the following GD therapeutic goals: hemoglobin level of ≥11.0 g/dL for females and ≥12.0 g/dL for males; platelet count ≥100 000/mm3; spleen volume <10 multiples of normal (MN), or total splenectomy (provided the splenectomy occurred >3 years prior to randomization); liver volume <1.5 MN; and no bone crisis and free of symptomatic bone disease such as bone pain attributable to osteonecrosis and/or pathological fractures within the last year. Patients must have GD3 featuring oculomotor apraxia (supranuclear gaze palsy) characterized by a horizontal saccade abnormality.
# During the study patients were evaluated for safety and tolerability, CSF and plasma biomarkers (glucosylceramide, GL-1; glucosylsphingosine, lyso-GL1), pharmacokinetics, markers for systemic disease (spleen and liver volume measured by magnetic resonance imaging (MRI), platelet count, hemoglobin levels), indicia of interstitial lung disease (high resolution pulmonary computed tomography (CT)), and horizontal saccadic eye movement.
# A second interim analysis was performed when the first 6 patients had reached 52-weeks of treatment, as described above in section (A). This analysis included Patients 1-5 as described in section (A), as well as new Patient 6. All six patients had L444P (1448T/C) homozygous Gaucher phenotype.
# [4] = tested on: adult patients with Gaucher disease Type 3; test: Clinical study in GD-3 patients: resting-state fMRI connectivity; format: in vivo, human; details: 15 mg/day + imiglucerase, individual Patients 1, 3, 4, 5, 6 (Patient 5 likely non-compliant)
# Description: Neurological function-was further evaluated using functional magnetic resonance imaging (fMRI). Patient 2 was excluded because no fMRI data was collected at the Week 52 session. Resting-state fMRI screening sessions were performed at baseline screening, Week 26, and Week 52 visits. Connectivity estimates from four subjects (Patients 1, 3, 4 and 5) were entered into second-level analyses as a “compliant” group. Patient 5 was isolated due to likely non-compliance with study medication, as described above. Analyses were performed as described elsewhere (Smith et al. [2009]).
# Spatial analysis of the connectivity between different anatomic regions of the brain is performed to define a correlation coefficient for regressed voxelwise mean intensity.
# [5] = human, plasma, oral, plasma, Day 1 (N = 5)
# [6] = human, plasma, oral, plasma, Day 1 (N = 6)
smiles,measurement,setting,value
"CC(C)(NC(=O)O[C@@H]1CN2CCC1CC2)c1csc(-c2ccc(F)cc2)n1 [Compound 2, (S)-quinuclidin-3-yl 2-(2-(4-fluorophenyl)thiazol-4-yl)propan-2-ylcarbamate]",IC50,[1],9.6 nM
same,AUC(0-t),"[2]; 5 mg, healthy adults, 5 mg once daily, Day 1 (N = 9), read-out: AUC0-24, Geometric mean (CV)",0.292 µg·h/mL
same,AUC(0-t),"[2]; 5 mg, healthy adults, 5 mg once daily, Day 1 (N = 9), read-out: AUC0-24, Mean (SD)",0.296 µg·h/mL
same,Cmax,"[2]; 5 mg, healthy adults, 5 mg once daily, Day 1 (N = 9), read-out: Cmax, Geometric mean (CV)",0.0182 µg/mL
same,Cmax,"[2]; 5 mg, healthy adults, 5 mg once daily, Day 1 (N = 9), read-out: Cmax, Mean (SD)",0.0185 µg/mL
same,Tmax,"[2]; 5 mg, healthy adults, 5 mg once daily, Day 1 (N = 9)",5 h
same,AUC(0-t),"[2]; 5 mg, healthy adults, 5 mg once daily, Day 14 (N = 9), read-out: AUC0-24, Geometric mean (CV)",0.632 µg·h/mL
same,AUC(0-t),"[2]; 5 mg, healthy adults, 5 mg once daily, Day 14 (N = 9), read-out: AUC0-24, Mean (SD)",0.642 µg·h/mL
same,Cmax,"[2]; 5 mg, healthy adults, 5 mg once daily, Day 14 (N = 9), read-out: Cmax, Geometric mean (CV)",0.0365 µg/mL
same,Cmax,"[2]; 5 mg, healthy adults, 5 mg once daily, Day 14 (N = 9), read-out: Cmax, Mean (SD)",0.037 µg/mL
same,Tmax,"[2]; 5 mg, healthy adults, 5 mg once daily, Day 14 (N = 9)",3 h
same,AUC(0-t),"[2]; 10 mg, healthy adults, 10 mg once daily, Day 1 (N = 9), read-out: AUC0-24, Geometric mean (CV)",0.623 µg·h/mL
same,AUC(0-t),"[2]; 10 mg, healthy adults, 10 mg once daily, Day 1 (N = 9), read-out: AUC0-24, Mean (SD)",0.635 µg·h/mL
same,Cmax,"[2]; 10 mg, healthy adults, 10 mg once daily, Day 1 (N = 9), read-out: Cmax, Geometric mean (CV)",0.0378 µg/mL
same,Cmax,"[2]; 10 mg, healthy adults, 10 mg once daily, Day 1 (N = 9), read-out: Cmax, Mean (SD)",0.0385 µg/mL
same,Tmax,"[2]; 10 mg, healthy adults, 10 mg once daily, Day 1 (N = 9)",3 h
same,AUC(0-t),"[2]; 10 mg, healthy adults, 10 mg once daily, Day 14 (N = 9), read-out: AUC0-24, Geometric mean (CV)",1.49 µg·h/mL
same,AUC(0-t),"[2]; 10 mg, healthy adults, 10 mg once daily, Day 14 (N = 9), read-out: AUC0-24, Mean (SD)",1.55 µg·h/mL
same,Cmax,"[2]; 10 mg, healthy adults, 10 mg once daily, Day 14 (N = 9), read-out: Cmax, Geometric mean (CV)",0.086 µg/mL
same,Cmax,"[2]; 10 mg, healthy adults, 10 mg once daily, Day 14 (N = 9), read-out: Cmax, Mean (SD)",0.0897 µg/mL
same,Tmax,"[2]; 10 mg, healthy adults, 10 mg once daily, Day 14 (N = 9)",2 h
same,AUC(0-t),"[2]; 20 mg, healthy adults, 20 mg once daily, Day 1 (N = 9), read-out: AUC0-24, Geometric mean (CV)",1.08 µg·h/mL
same,AUC(0-t),"[2]; 20 mg, healthy adults, 20 mg once daily, Day 1 (N = 9), read-out: AUC0-24, Mean (SD)",1.1 µg·h/mL
same,Cmax,"[2]; 20 mg, healthy adults, 20 mg once daily, Day 1 (N = 9), read-out: Cmax, Geometric mean (CV)",0.0665 µg/mL
same,Cmax,"[2]; 20 mg, healthy adults, 20 mg once daily, Day 1 (N = 9), read-out: Cmax, Mean (SD)",0.068 µg/mL
same,Tmax,"[2]; 20 mg, healthy adults, 20 mg once daily, Day 1 (N = 9)",3.07 h
same,AUC(0-t),"[2]; 20 mg, healthy adults, 20 mg once daily, Day 14 (N = 9), read-out: AUC0-24, Geometric mean (CV)",2.34 µg·h/mL
same,AUC(0-t),"[2]; 20 mg, healthy adults, 20 mg once daily, Day 14 (N = 9), read-out: AUC0-24, Mean (SD)",2.42 µg·h/mL
same,Cmax,"[2]; 20 mg, healthy adults, 20 mg once daily, Day 14 (N = 9), read-out: Cmax, Geometric mean (CV)",0.137 µg/mL
same,Cmax,"[2]; 20 mg, healthy adults, 20 mg once daily, Day 14 (N = 9), read-out: Cmax, Mean (SD)",0.142 µg/mL
same,Tmax,"[2]; 20 mg, healthy adults, 20 mg once daily, Day 14 (N = 9)",3 h
same,CL renal,"[2]; 5 mg, healthy adults, 5 mg once daily, Day 14 (N = 9), read-out: CLR(0-24), Mean (SD) (converted)",25.8 mL/min
same,CL renal,"[2]; 10 mg, healthy adults, 10 mg once daily, Day 14 (N = 9), read-out: CLR(0-24), Geometric mean (CV) (converted)",23.3 mL/min
same,CL renal,"[2]; 10 mg, healthy adults, 10 mg once daily, Day 14 (N = 9), read-out: CLR(0-24), Mean (SD) (converted)",24.8 mL/min
same,CL renal,"[2]; 20 mg, healthy adults, 20 mg once daily, Day 14 (N = 9), read-out: CLR(0-24), Geometric mean (CV) (converted)",33.3 mL/min
same,CL renal,"[2]; 20 mg, healthy adults, 20 mg once daily, Day 14 (N = 9), read-out: CLR(0-24), Mean (SD) (converted)",34.5 mL/min
same,"CLss/F, Geometric mean (CV)","[2]; healthy adults, 5 mg once daily, Day 14 (N = 9)",5.9 (19.5) L/h
same,"CLss/F, Geometric mean (CV)","[2]; healthy adults, 10 mg once daily, Day 14 (N = 9)",5.0 (24.4) L/h
same,"CLss/F, Geometric mean (CV)","[2]; healthy adults, 20 mg once daily, Day 14 (N = 9)",6.4 (25.8) L/h
same,Ctrough values over time,"[2]; healthy adults, 5, 10, or 20 mg once daily for 14 days",reached a plateau after Day 5
same,Time to steady state,"[2]; healthy adults, repeated once-daily doses from 5-20 mg",≤ 5 days
same,Crossing of the blood-brain barrier,[3],effectively cross the blood-brain barrier in all patients
same,Time at which steady state concentration is reached in plasma and CSF,[3],≤ 4 Week
same,Concentration in CSF 2-4 hours post dose (mean ± SD),[3]; Day 1 (N = 6),<LLOQ
same,Concentration in CSF 4 hours post dose (mean ± SD),[3]; Week 4 (N = 5),0.00417 ± 0.00083 µg/mL
same,Concentration in CSF 4 hours post dose (mean ± SD),[3]; Week 26 (N = 4),0.00471 ± 0.0025 µg/mL
same,tmax (median),"[3]; plasma, Day 1 (N = 6)",2.00 h
same,Tmax,"[3]; human, oral, plasma, Day 1 (N = 5), read-out: tmax (median)",2 h
same,AUC(0-t),[3]; [5],0.715 ± 0.225 µg·h/mL
same,Cmax,[3]; [5],0.0482 ± 0.0192 µg/mL
same,AUC(0-t),[3]; [6],0.729 ± 0.205 µg·h/mL
same,Cmax,[3]; [6],0.0491 ± 0.0173 µg/mL
same,Change in Correlation Coefficient (connectivity default mode network - executive function network),[4],+0.20 (3×) and −0.13 and +0.70
